Source: paper PMC5760734, “Development of an oral once-weekly drug delivery system for HIV antiretroviral therapy” (Nature Communications, 2018)
Read-outs that look alike come from different tables or passages of the source. Each block holds one compound with its values, some of them ahead of it.

Key:
[1] = Drug stability at high temperature (150 °C, 2 h), HPLC; assay type: physicochemical; settings: 150 °C for 2 h
Protocol: To determine the drug stability at high temperatures, the drug was weighed in a 20 mL glass vial, and placed in a convection oven at 150 °C for 2 h. Drug was dissolved in methanol, and the concentration was compared to that of an unheated standard of the same initial concentration via HPLC.

[2] = Plasma pharmacokinetics of immediate release and gastric resident dosage forms in pigs; assay type: in vivo, Yorkshire pigs; settings: for Tmax: female, Yorkshire, pig, plasma, oral, post-dose, read-out: time of maximum plasma concentration (converted); for duration of sustained drug concentrations: single dose
Protocol: All animal experiments were approved by the Committee on Animal Care at the Massachusetts Institute of Technology. In vivo pharmacokinetics were evaluated in an unblinded fashion in female Yorkshire pigs (50–95 kg) that were randomly assigned to the immediate release or sustained release groups. Animals were fed daily in the morning and in the evening with a diet consisting of pellets (Laboratory mini-pig growler diet, 5081), with a midday snack consisting of various fruits and vegetables. Specifically, the pellets were 5/32” x ¼” length, and consisted of ground oats, alfalfa meal, wheat middlings, soybean meal, dried beet pulp, salts and other micronutrients.
To determine the oral pharmacokinetics of immediate release dosage forms of DTG and CAB, 50 mg of DTG and 30 mg of CAB were weighed and filled into gelatine capsules. For RPV pharmacokinetics, RPV base was dissolved in poly(ethylene glycol) (molecular weight—400 Da) containing 10-fold molar excess of citric acid. The concentration of RPV base in this solution was 5 mg/mL and 5 mL of the solution was dosed in a gelatine capsule. […] To determine oral pharmacokinetics from gastric retentive dosage forms, the arms of dosage forms (2–3/pig containing 350 mg DTG, 175 mg RPV or 210 mg CAB) were folded into capsule shells immediately prior to dosing. […]. The capsules containing drug or dosage form were delivered into the intestine or stomach respectively. At various time points, blood samples (0.5 mL) were collected from a central line connected to the external jugular vein or from a mammary vein into […] Vacutainer gold top tubes (Becton, Dickinson and Co. USA). Plasma samples were separated from blood by centrifugation (1800g, 10 min at 4 °C) and were stored at −80 °C. Atropine can reduce gastric acid production and gastric motility which may affect the overall drug pharmacokinetics and the gastric retention of the dosage form. […]. Drug concentrations in the plasma were analysed using UPLC-MS/MS. Plasma samples (100 µL) were spiked with 200 µL acetonitrile solution of 250 µg/mL maraviroc (internal standard) to cause precipitation. Samples were vortexed and sonicated for 10–20 min and then centrifuged (21130g, 10 min). Two hundred microliters of solution were pipetted into a 96-well plate containing 200 µL of nanopure water. Finally, 2.5 μL was injected onto the UPLC–ESI–MS system for analysis.
UPLC separation was carried out on a Waters® UPLC aligned with a Waters® Xevo–TQ-SMS mass spectrometer (Waters Ltd., UK). MassLynx® 4.1 software was used for data acquisition and analysis. Liquid chromatography separation was performed on an Acquity® UPLC CSH C18 (50 × 2.1 mm, 1.7 μm particle size) column at 50 °C. The mobile phase consisted of acetonitrile spiked with 0.1% formic acid and 10 mM ammonium formate solution. The mobile phase was flowed at a rate of 0.6 mL/min using a time and solvent gradient composition. The initial composition (100% aqueous) was held for 1 min, following which the composition was changed linearly to 20% organic phase over the next 0.25 min. The composition was then brought to 100% organic over 1.25 min, held for 0.5 min and finally shifted to the initial composition and held constant until the end of the run for column equilibration. The total run time was 4 min and sample injection volume was 2.5 μL. The mass spectrometer was operated in the multiple reaction monitoring (MRM) mode. Sample introduction and ionization was by electrospray ionization (ESI) in the positive ion mode. DTG, RPV and CAB were analysed at mass-to-charge ratios of […] respectively. Stock solutions of DTG, RPV, CAB, and an internal standard maraviroc were prepared in methanol at a concentration of 500 μg/mL. A ten-point calibration curve was prepared ranging from 2.5–5000 ng/mL. Quality control samples were prepared in a similar procedure using an independent stock solution at three concentrations (5, 50 and 500 ng/mL). […]

[3] = Drug stability in simulated gastric fluid (SGF), HPLC; settings: for stability in SGF: SGF pH ~1.2, 37 °C, 24 h, salt forms
Protocol: To determine drug stability at low pH, the drugs were dissolved in methanol to form a concentrated stock solution. Methanol solutions were then diluted 20-fold in simulated gastric fluid, USP without pepsin (pH ~1.2; henceforth referred to as SGF). Drug solutions were then placed in a shaker incubator (New Brunswick™ Innova® 44, Eppendorf, USA) at 37 °C and 150 r.p.m. At various times, aliquots were withdrawn and stored at −20 °C until analysis. Drug concentrations in the solution were analysed using HPLC and reported as percent of the initial concentrations.
The output signal was monitored and processed using ChemStation® software (Agilent Technologies Inc., USA). Chromatographic separation was carried out on a 50 mm × 4.6 mm EC-C18 Agilent Poroshell 120 analytical column with 2.7 µm spherical particles.
The injection volume was 5 µL, and the UV detection wavelength of 260 nm was selected.
For RPV, the stationary phase was maintained at 40 °C. The mobile phase consisted of methanol: water (pH 3.5 adjusted with 0.1% formic acid) (43:57 v/v) at a flow rate of 0.9 mL/min over a 10 min run time. The injection volume was 20 µL, and the UV detector was set at 290 nm.
For CAB, the column was maintained at 45 °C and the optimized mobile phase consisted of acetonitrile: water (pH 3.5 adjusted with 0.1% formic acid) (30:70 v/v) at flow rate of 0.8 mL/min over an 8 min run time. For analysis, 5 µL of the sample was injected on to the column, and the samples were analysed at a wavelength of 260 nm.
For tenofovir alafenamide, the column was maintained at 22 °C. The mobile phase consisted initially of acetonitrile: water (pH 3.5 adjusted with 0.1% formic acid) (100:0 v/v). […] The flow rate was 0.6 mL/min and the run time was 8 min. The injection volume was 10 µL, and the UV detection wavelength of 260 nm was selected.

[4] = humans receiving the usual oral dose; stated by Reviewer 1, no reference; cited from earlier work
[5] = parameters: method as in ref 58 (a number printed in a supplementary file, which may have a reference list of its own: not looked up in the article's list); settings: cited from earlier work
[6] = system: drug-resistant HIV strains; settings: cited from earlier work
[7] = system: HIV reference strain NL4-3; parameters: method as in ref 46,55–57 (a number printed in a supplementary file, which may have a reference list of its own: not looked up in the article's list); settings: wild-type virus; cited from earlier work
[8] = pig, in vivo, po; cited from earlier work
[9] = immediate release formulation, pigs
[10] = immediate release formulation, pigs, n = 3

stability at elevated temperature [1]: stable | Tmax [2, 9]: 6 h | average peak plasma concentration, fold lower than immediate release ([2]; gastric resident system vs immediate release, pigs): ~ 2.5 fold | average (sustained) plasma drug concentrations throughout the week following dosing ([2]; gastric resident system, pigs, n = 3): 200 to 500 ng/mL | duration of sustained drug concentrations ([2]; gastric resident system): up to 1 week | day at or after which no drug was detected in plasma [2, 9]: 3 days | time for which drug was detectable in plasma [2, 9]: up to 2 days | average maximum plasma concentration [2, 10]: ~1400 ng/mL | stability in SGF [3]: stable
SMILES: C[C@H]1CO[C@@H]2Cn3cc(C(=O)NCc4ccc(F)cc4F)c(=O)c(O)c3C(=O)N12 [CAB, cabotegravir]
usual Cmax in humans [4]: 2800 ng/mL

SMILES: Cc1cc(/C=C/C#N)cc(C)c1Nc1ccnc(Nc2ccc(C#N)cc2)n1 [RPV, rilpivirine]
stability at elevated temperature [1]: stable | Half-life, τ1/2 [5]: 50 h | Cmax ([5]; maximum plasma concentration at steady state, perfect adherence): 510 nM | Tmax ([2]; 175 mg, gastric resident dosage form, pigs): 24 h | maintenance of plasma concentrations ([2]; gastric resident dosage form, pigs, entirety of the study): comparable to the Cmax were maintained for the entirety of the study | duration of sustained drug concentrations ([2]; gastric resident system): up to 1 week | time for plasma concentration to drop below the limit of detection [2, 9]: ≤ 2 days | average maximum plasma concentration [2, 10]: ~25 ng/mL | Fold change in IC50 (ρ) ([6]; mutation E138K/M184I): 3.20 | Fold change in IC50 (ρ) ([6]; mutation E138K/M230L): 22.60 | Fold change in IC50 (ρ) ([6]; mutation E138K): 2.30 | Fold change in IC50 (ρ) ([6]; mutation K101E/E138K): 3.20 | Fold change in IC50 (ρ) ([6]; mutation K101E/M184I): 5.80 | Fold change in IC50 (ρ) ([6]; mutation K101E): 3.00 | Fold change in IC50 (ρ) ([6]; mutation K101P): 102.13 | Fractional change in slope (σ) ([6]; mutation K101P): -0.21 | Fold change in IC50 (ρ) ([6]; mutation K103N): 1.23 | Fractional change in slope (σ) ([6]; mutation K103N): 0.12 | Fold change in IC50 (ρ) ([6]; mutation M184I): 1.50 | Fold change in IC50 (ρ) ([6]; mutation M230L): 3.40 | Fold change in IC50 (ρ) ([6]; mutation Y181C/Y188L): 30.20 | Fold change in IC50 (ρ) ([6]; mutation Y181C): 1.72 | Fractional change in slope (σ) ([6]; mutation Y181C): -0.48 | Fold change in IC50 (ρ) ([6]; mutation Y181I): 152.91 | Fractional change in slope (σ) ([6]; mutation Y181I): -0.10 | Fold change in IC50 (ρ) ([6]; mutation Y181V): 31.00 | Fold change in IC50 (ρ) ([6]; mutation Y188L): 6.00 | stability in SGF [3]: stable | usual Cmax in humans [4]: 200 ng/mL | IC50 [7]: 105 nM | m (slope parameter of Hill curve) [7]: 1.83

SMILES: CC(C)OC(=O)[C@H](C)N[P@](=O)(CO[C@H](C)Cn1cnc2c(N)ncnc21)Oc1ccccc1 [TAF, tenofovir alafenamide]
drug remaining stable ([3]; after 10 h of incubation in SGF, 37 °C): 10%

SMILES: C[C@]12C=CC(=O)C=C1CC[C@@H]1[C@@H]2[C@@H](O)C[C@@]2(C)[C@H]1CC[C@]2(O)C(=O)CO [prednisolone]
concentrations achieved in pigs relative to those observed in humans [8]: about one tenth
